# Experimental data as given in BindingDB's records for patent WO2022101377 (Boehringer Ingelheim International, 2022).
# Molecular target: Platelet-activating factor receptor (Homo sapiens, UniProt P25105)
# Experiment: EVALUATION OF THE INHIBITION OF PAFR ACTIVATION
# Experimental: USING AN ENDPOINT ASSAY HEK293 cells overexpressing human PAFR (produced in-house) are seeded into a Poly-D-Lysine coated 384 well white cell culture microtiter assay plate with lid (15.000 cells per well). Subsequently, the plates are incubated over night at 37 °C/5% CO2. On the next day, cells are being washed and subsequently, various concentrations of the test compounds (compounds in 100% DMSO; final concentratrion of DMSO in wells is 1%) are added to the assay plate via Echo 555 acoustic liquid handler. Plates are then incubated with lid for 90 minutes at 37 °C/5% CO2. Thereafter, PAF ligand (Cayman Chemical Company, Item no.: 60900) is added at a final concentration of 11 nM. Plates are then incubated with lid for 60 minutes at 37 °C/5% CO2. Then, 5 µl per well of Anti-IP1-Antibody-Cryptate solution and 5 µL per well of IP1-d2 solution are added to all wells of the plate and the plate is incubated for another 60 minutes light protected at room temperature. The emissions at 620 nm and 665 nm (Excitation wavelength: 320 nm) are measured using an Envision Reader (PerkinElmer).
# Sequence of Platelet-activating factor receptor (P25105 whole entry): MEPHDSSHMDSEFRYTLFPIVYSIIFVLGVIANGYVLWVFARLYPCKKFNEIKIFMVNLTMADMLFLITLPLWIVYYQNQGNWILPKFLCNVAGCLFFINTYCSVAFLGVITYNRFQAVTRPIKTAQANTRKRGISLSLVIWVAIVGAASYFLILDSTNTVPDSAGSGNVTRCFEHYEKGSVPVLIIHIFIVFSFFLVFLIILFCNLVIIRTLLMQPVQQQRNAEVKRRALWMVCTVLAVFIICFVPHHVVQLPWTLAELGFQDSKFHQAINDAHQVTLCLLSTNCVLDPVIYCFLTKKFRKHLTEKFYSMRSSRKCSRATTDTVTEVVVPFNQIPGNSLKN
row,Compound,IC50
1,"COc1ccccc1C1NCc2nnc(C)n2-c2sc3c(c21)CC(C(=O)N1CCOCC1)C3 (stereo unspecified) [WO2022101377, Example 54]",> 322 nM
2,"Cc1nnc2n1-c1sc3c(c1C(c1ccccc1C(F)(F)F)NC2)CC(C(=O)N1CCOCC1)C3 (stereo unspecified) [WO2022101377, Example 56]",> 322 nM
3,"Cc1nnc2n1-c1sc3c(c1C(c1cc(F)cc(F)c1)NC2)CC(C(=O)N1CCOCC1)C3 (stereo unspecified) [WO2022101377, Example 58]",> 322 nM
4,"Cc1nnc2n1-c1sc3c(c1C(c1ccccc1C1CC1)NC2)CC(C(=O)N1CCOCC1)C3 (stereo unspecified) [WO2022101377, Example 59]",> 322 nM
5,"Cc1nnc2n1-c1sc3c(c1C(c1ccccc1CO)NC2)CC(C(=O)N1CCOCC1)C3 (stereo unspecified) [WO2022101377, Example 60]",> 322 nM
6,"Cc1nnc2n1-c1sc3c(c1C(c1ccccc1O)NC2)CC(C(=O)N1CCOCC1)C3 (stereo unspecified) [WO2022101377, Example 61]",> 322 nM
7,"Cc1ccccc1[C@H]1NCc2nnc(C)n2-c2sc3c(c21)C[C@H](C(=O)N1CCOCC1)C3 [WO2022101377, Example 63]",> 568 nM
8,"Cc1nnc2n1-c1sc3c(c1C(c1ccccc1Cl)NC2)C[C@H](C(=O)N1CCCC2(CC2)C1)C3 (stereo partly specified) [WO2022101377, Example 66]",2.7 nM
9,"Cc1nnc2n1-c1sc3c(c1C(c1ccccc1)NC2)CC(C(=O)N1CCOCC1)C3 (stereo unspecified) [WO2022101377, Example 74]",102 nM
10,"CSc1ccccc1C1NCc2nnc(C)n2-c2sc3c(c21)CC(C(=O)N1CCOCC1)C3 (stereo unspecified) [WO2022101377, Example 79]",235 nM
11,"CCCc1nnc2n1-c1sc3c(c1C(c1ccccc1Cl)NC2)CC(C(=O)N1CCOCC1)C3 (stereo unspecified) [WO2022101377, Example 80]",110 nM
